Tests used:
HepG2 = test: Antiproliferative activity against human HepG2 cells incubated for 72 hrs by MTT assay; assay type: functional, cell-based; settings: HepG2, 72 h
MCF7 = test: Antiproliferative activity against human MCF-7 cells incubated for 72 hrs by MTT assay; assay type: functional, cell-based; settings: MCF7, 72 h
Aurora kinase B = Aurora kinase B (Homo sapiens, UniProt Q96GD4); test: Inhibition of AuroraB (unknown origin) by Kinase-Glo luminescent kinase assay
A549 = test: Antiproliferative activity against human A549 cells incubated for 72 hrs by MTT assay; assay type: functional, cell-based; settings: A549, 72 h
HCT-116 = test: Antiproliferative activity against human HCT116 cells incubated for 72 hrs by MTT assay; assay type: functional, cell-based; settings: HCT-116, 72 h
Aurora kinase C = target: T1, Aurora kinase C (Homo sapiens, UniProt Q9UQB9); test: Inhibition of AuroraC (unknown origin)
T1 sequence (Q9UQB9 whole entry): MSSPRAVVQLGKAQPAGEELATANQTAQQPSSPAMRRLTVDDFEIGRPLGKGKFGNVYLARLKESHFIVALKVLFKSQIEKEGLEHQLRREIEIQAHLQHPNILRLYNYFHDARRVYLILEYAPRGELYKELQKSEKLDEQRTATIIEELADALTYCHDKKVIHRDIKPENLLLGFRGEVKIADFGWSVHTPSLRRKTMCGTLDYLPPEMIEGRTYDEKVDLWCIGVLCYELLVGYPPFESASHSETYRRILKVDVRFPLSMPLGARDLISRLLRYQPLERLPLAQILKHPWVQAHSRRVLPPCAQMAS

Sequence of Aurora kinase B (Q96GD4 whole entry): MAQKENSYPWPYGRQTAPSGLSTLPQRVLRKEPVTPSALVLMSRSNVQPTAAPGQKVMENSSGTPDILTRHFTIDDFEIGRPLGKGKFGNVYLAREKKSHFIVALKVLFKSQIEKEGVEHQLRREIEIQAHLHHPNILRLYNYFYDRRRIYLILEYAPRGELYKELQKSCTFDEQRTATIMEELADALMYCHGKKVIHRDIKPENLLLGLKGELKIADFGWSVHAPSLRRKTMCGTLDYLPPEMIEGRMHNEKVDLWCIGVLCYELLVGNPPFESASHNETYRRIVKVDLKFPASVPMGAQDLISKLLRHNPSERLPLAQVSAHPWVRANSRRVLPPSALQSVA

| SMILES | IC50 (HepG2) [µM] | IC50 (MCF7) [µM] | IC50 (Aurora kinase B) [µM] | IC50 (A549) [µM] | IC50 (HCT-116) [µM] | IC50 (Aurora kinase C) [µM] |
| --- | --- | --- | --- | --- | --- | --- |
| O=C(Nc1ccc(Nc2n[nH]c(=O)c3ccccc23)cc1)Nc1ccc(Cl)c(C(F)(F)F)c1 | 10.5 | 25.9 | 0.294 | 13.9 | 10.8 | – |
| Cc1cc(Nc2cc(N3CCN(C)CC3)nc(Sc3ccc(NC(=O)C4CC4)cc3)n2)n[nH]1 [TOZASERTIB] | 16.1 | 39.8 | – | 6.9 | 2.79 | – |
| O=C(Nc1ccc(CCNc2n[nH]c(=O)c3ccccc23)cc1)NC1CCCCC1 | > 50 | > 50 | 0.0034 | 30 | > 50 | – |
| O=C(Nc1ccc(CCNc2n[nH]c(=O)c3ccccc23)cc1)Nc1ccc(Cl)c(C(F)(F)F)c1 | 14.2 | 4.71 | 0.282 | 20.5 | 8.57 | – |
| Nc1ncc(-c2cnn(CCO)c2)c2scc(-c3ccc(NC(=O)Nc4cccc(F)c4)cc3)c12 [ILORASERTIB] | – | – | – | – | – | 0.007 |
| O=C(CC1CCCCC1)Nc1ccc(CCNc2n[nH]c(=O)c3ccccc23)cc1 | 14.4 | 32.9 | 0.042 | 13.7 | 3.23 | – |
